Experiments:
[1] = test system: ears of hairless outbred mice inflamed with A-23187; experiment: Reduction in edema of A-23187 inflamed mouse ears by ear weight (Examples 8-14, Studies A and B); type: in vivo, young, male, adult hairless outbred mice (Skh:hr-1 strain); details: for Reduction in Edema (%): sacrificed at four hours; for anti-inflammatory activity (in words): under the test conditions, data of Table 2
Excerpt: (§1) Acute inflammation is induced by the application of 4 nano mole of the antibiotic A-23187 to the ears of young, male, adult hairless outbred mice (Skh:hr-1 strain). Thereafter, one of the compounds AN-10, AMCF3-8, ACBXE-9, acryloyl AN-10, S-4-F and SAN-6 is applied to the affected ears and the degree of reduction in edema (inflammation) noted.
The method used in the subject Examples differs from the method used in the preceding Examples (4 through 7) in two respects.
(§2) Secondly, in the expression of the data, the objective parameter of ear weights is used as the sole data source (for the reduction of edema) as erythematous responses are not recorded. Ear weights are determined by sacrificing the animals four hours after initial application of the antibiotic A-23187 or other control material by the use of CO2 gas. Thereafter, the ears are excised by cutting along the characteristic ridge readily discernible along the inner aspect of the ears. Wet and dry ear weights are used to determine the extent of the edema or inflammation present.
In Study A, 28 test animals are randomized into four treatment groups of seven each and subjected to the following ear treatment regimen:
Each animal is dosed with a treatment consisting of a 10 microliter quantity of the assigned test material solution (or pure acetone in the case of the animals of Group D) applied to the outer aspect of both ears, i.e., 10 microliter of test material per ear. The concentrations of the respective materials in acetone solution are such that a 10 microliter dose of a solution of the antibiotic A-23187 contains 4 nano mole of such antibiotic. The corresponding quantity in the case of the AN-10 in acetone solution is 1.5 micromole. The animals of Groups A and B are initially treated with the acetone solution of A-23187. In the case of the animals of Group B alone, 10 microliter of the acetone solution of AN-10 is applied to the affected ears 1/2 hour after the application of the above-mentioned quantity of a solution in acetone of the antibiotic A-23187. The animals of Group C receive a 10 microliter dose per ear of the AN-10 in acetone solution alone. The animals of Group D receive a dose of 10 microliter per ear of pure acetone. All the test subjects are sacrificed four hours after the application of A-23187 to the animals of Groups A and B or the other test materials in the case of the animals of Groups C and D. The results are summarized in Table 2 noted below.
(§3) A second group of studies (Study B) is conducted on two consecutive days with two sets of mice (totalling […]) received from the same shipment.
On Day 2, using the second set of 40 mice, sub-divided into 8 groups of 5 each, the six compounds in question are applied as acetone solutions in the manner described under Study A to mice ears inflamed with A-23187 again, as described in Study A above. As with the studies conducted on Day 1, the remaining two groups of 5 animals each serve as controls and their ears are dosed with A-23187 and acetone respectively.
(§4) The amount of each salicylamide compound applied is kept constant, for Days 1 and 2, at 1.5 micromole per 10 microliter of test solution. Sacrifice begins four hours after application A-23187, on both days, and the results are recorded. Table 2 summarizes the results of the regimen of testing involved with each one of the 30 animals in question on Day 2 with the remaining 10 animals serving as controls as already noted.

[2] = test system: untreated ears of mice; experiment: Inflammatory potential of the compounds on untreated mouse ears (Study B, Day 1); type: in vivo, young, male, adult hairless outbred mice (Skh:hr-1 strain); details: 1.5 micromole per 10 microliter on untreated ears
Excerpt: as §1, §2, §3
The first batch of 40 animals is divided into […] of 5 each. […] The remaining two groups of 5 animals each serve as controls and their ears are dosed with A-23187 and acetone respectively.
as §4

[3] = test system: inflammation of mice ears caused by calcium ionophore (A-23187); experiment: Anti-inflammatory activity on inflammation of mice ears caused by calcium ionophore A-23187 (Examples 4-7); type: in vivo, male outbred hairless mice; details: for Reduction in Edema (%) / Reduction in Erythema (%): Table I, 1.5 micromole topically to ear 30 min after 4.0 nmole A-23187, assessed at 4 hrs; for anti-inflammatory activity (in words): at the concentration used (1.5 micromole), data of Table 1; for reduction of inflammation (in words): topical, 30 minutes after application of ionophore A-23187
Excerpt: In a group of 5 male outbred hairless mice, inflammation is induced on their ears by the topical application thereto of 4.0 nmole in acetone solution (total volume 10 microliter) of the known divalent calcium ionophore (antibiotic A-23187), which is derived from streptomyces chartreusis and is a member of a known class of compounds having ionophoric activity. See, e.g. Pressman, B. C., "Biological Applications of Ionophores", Ann. Rev. Biochem., 45, 501, 1976. […] See Marks, F., Furstenberger, G., and Kownatzki, E., "Prostaglandin E-mediated Mitogenic Stimulation of Mouse Epidermis in vivo by divalent cation ionophore A-23187 and by tumor promoter 12-O-tetradecanoyl phorbol-13-acetate, Cancer Res., 41, 696, 1981.
In each animal only one ear is treated, the other untreated ear serving as a control.
In Examples 4, 5 and 6 the compounds AN-10, APCF3-8 and AMCF3-8, respectively, are topically applied to the treated ears of different groups of five male outbred hairless mice 30 minutes following the topical application thereto of the ionophore A-23187. Specifically, 1.5 micromole of the amido compound in acetone solution (total volume 10 microliters) is applied topically to treated male outbred hairless mice ears 30 min. after topical application thereto of a calcium ionophore (A-23187, 4.0 nmole total volume to 10 microliter) in acetone. As already noted, in each case, each animal serves as its own control in that only one ear is subjected to said test regime while the other ear is left untouched. Erythema and edema are assessed 4 hrs. after application of the ionophore. In Control Example 7, 3,4',5-tribromosalicylanilide (TBS) is applied in the same manner.

[4] = test system: Osborne-Mendel white rats; details: single dose oral route, female Osborne-Mendel white rats; cited from earlier work
[5] = test system: rats; details: comparable toxicity for aspirin; cited from earlier work
[6] = test system: mice backs (skin); details: topical application to mice backs; cited from earlier work
[7] = Study B, Day 2, 1.5 micromole per 10 microliter, A-23187 inflamed ears

Row | Compound | Reduction in Edema (%) [1, 7] [%] | anti-inflammatory activity (in words) [1] | noticeable inflammation caused by the compound alone [2] | Reduction in Edema (%) [3] [%] | Reduction in Erythema (%) [3] [%] | anti-inflammatory activity (in words) [3] | further results
1 | CCCCc1ccc(O)c(C(=O)Nc2cccc(C(F)(F)F)c2)c1 [S-4-F] | 70 | significant anti-inflammatory activity | none of the six compounds being tested cause any noticeable inflammation | – | – | – | –
2 | CCCCCCCC(=O)c1ccc(O)c(C(=O)Nc2cccc(C(F)(F)F)c2)c1 [AMCF3-8] | 81 | significant anti-inflammatory activity | none of the six compounds being tested cause any noticeable inflammation | 80 | 76 | effective anti-inflammatories | more edema reduction activity of the meta isomer than the para isomer ([3]; AMCF3-8 versus APCF3-8): about 30%; more erythema reduction activity of the meta isomer than the para isomer ([3]; AMCF3-8 versus APCF3-8): about 20%
3 | C=CC(=O)Oc1ccc(C(=O)CCCCCCCCC)cc1C(=O)Nc1ccc([N+](=O)[O-])cc1 [acryloyl AN-10] | 82 | significant anti-inflammatory activity | none of the six compounds being tested cause any noticeable inflammation | – | – | – | –
4 | CCCCCCc1ccc(O)c(C(=O)Nc2ccc([N+](=O)[O-])cc2)c1 [SAN-6] | 59 | significant anti-inflammatory activity | none of the six compounds being tested cause any noticeable inflammation | – | – | – | –
5 | O=C(Nc1ccc(Br)cc1)c1cc(Br)cc(Br)c1O [TBS, 3,4',5-tribromosalicylanilide, reference compound] | – | – | – | 12 | 35 | essentially inactive | –
6 | CCCCCCCCC(=O)c1ccc(O)c(C(=O)Nc2cccc(C(=O)OCC)c2)c1 [ACBXE-9] | 76 | significant anti-inflammatory activity | none of the six compounds being tested cause any noticeable inflammation | – | – | – | –
7 | CCCCCCCCCC(=O)c1ccc(O)c(C(=O)Nc2ccc([N+](=O)[O-])cc2)c1 [AN-10] | 81 | significant anti-inflammatory activity | none of the six compounds being tested cause any noticeable inflammation | 59 | 59 | effective anti-inflammatories | Reduction in Edema (%) ([1]; Study A, 1.5 micromole per ear 1/2 hour after 4 nano mole A-23187): 55%; LD50 [4]: greater than 2000 mg./kg.
8 | CCCCCCCC(=O)c1ccc(O)c(C(=O)Nc2ccc(C(F)(F)F)cc2)c1 [APCF3-8] | – | – | – | 48 | 57 | effective anti-inflammatories | –
9 | CC(=O)Oc1ccccc1C(=O)O [aspirin, acetylsalicylic acid] | – | – | – | – | – | – | LD50 [5]: about 1.75 g/kg. body weight
10 | C[C@]12CCC(=O)C=C1CC[C@@H]1[C@@H]2[C@@H](O)C[C@@]2(C)[C@H]1CC[C@]2(O)C(=O)CO [hydrocortisone, reference compound] | – | – | – | – | – | – | reduction of inflammation (in words) [3]: reduction of inflammation
11 | COc1ccc2c(c1)c(CC(=O)O)c(C)n2C(=O)c1ccc(Cl)cc1 [indomethacin, reference compound] | – | – | – | – | – | – | reduction of inflammation (in words) [3]: reduction of inflammation
12 | CNc1ccc2oc(C[C@H]3O[C@@]4(CC[C@H]3C)O[C@H]([C@H](C)C(=O)c3ccc[nH]3)[C@H](C)C[C@H]4C)nc2c1C(=O)O [A-23187, reference compound] | – | – | – | – | – | – | acute inflammation on treated mice ears (in words) ([3]; topical application of A-23187, time and dose dependent): Acute inflammation develops on treated mice ears within 4 hours; skin irritation (in words) [6]: potent ability to cause skin irritation with white blood cell infiltration, erythema (skin reddening), edema, epidermal hypertrophy and subsequent epidermal hyperplasia

From US4560549A, “Method of relieving pain and inflammatory conditions employing substituted salicylamides” (Lever Brothers Company, priority 1983, dated 1985)
